According to patent US12581252B2, “Substituted pyrrolo[3,4-b]pyridines as PI3K-α inhibitors” (Relay Therapeutics, Inc., priority 2020, dated 2026):
pIC50: −log10 of the molar value.

Molecular target: H1047R PIK3CA enzyme (Homo sapiens, UniProt P42336, H1047R)
Assay: ADP-Glo Biochemical PIK3CA Kinase Assay

H1047R PIK3CA enzyme, sequence (P42336 whole entry H1047R): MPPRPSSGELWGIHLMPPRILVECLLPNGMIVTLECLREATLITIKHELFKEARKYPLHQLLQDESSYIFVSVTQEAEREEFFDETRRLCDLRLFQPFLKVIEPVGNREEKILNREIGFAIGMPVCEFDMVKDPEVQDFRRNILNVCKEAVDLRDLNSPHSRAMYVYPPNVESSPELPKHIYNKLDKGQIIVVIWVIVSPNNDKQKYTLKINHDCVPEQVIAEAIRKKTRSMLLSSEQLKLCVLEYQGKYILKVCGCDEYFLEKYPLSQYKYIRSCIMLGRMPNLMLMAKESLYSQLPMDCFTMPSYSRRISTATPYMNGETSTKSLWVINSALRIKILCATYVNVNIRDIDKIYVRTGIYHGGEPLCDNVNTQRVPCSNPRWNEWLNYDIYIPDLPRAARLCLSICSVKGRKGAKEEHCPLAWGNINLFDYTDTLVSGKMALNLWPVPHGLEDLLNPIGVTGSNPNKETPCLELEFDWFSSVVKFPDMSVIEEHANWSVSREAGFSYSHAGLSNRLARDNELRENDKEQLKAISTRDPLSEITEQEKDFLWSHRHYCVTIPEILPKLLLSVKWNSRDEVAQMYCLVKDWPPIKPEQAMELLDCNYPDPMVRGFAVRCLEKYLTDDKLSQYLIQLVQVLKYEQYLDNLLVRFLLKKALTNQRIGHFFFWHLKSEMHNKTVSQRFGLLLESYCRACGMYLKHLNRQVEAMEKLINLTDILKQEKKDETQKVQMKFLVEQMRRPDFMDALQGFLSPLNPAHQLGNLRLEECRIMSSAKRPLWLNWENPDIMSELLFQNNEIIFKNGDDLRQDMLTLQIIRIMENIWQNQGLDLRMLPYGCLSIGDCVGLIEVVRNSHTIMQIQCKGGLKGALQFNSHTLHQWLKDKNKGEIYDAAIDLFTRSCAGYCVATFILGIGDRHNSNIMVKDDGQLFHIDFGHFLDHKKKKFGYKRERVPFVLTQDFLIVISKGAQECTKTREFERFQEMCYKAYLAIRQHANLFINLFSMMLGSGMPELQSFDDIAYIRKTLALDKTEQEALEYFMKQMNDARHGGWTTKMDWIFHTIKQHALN
H1047R PIK3CA enzyme, sequence (P27986 whole entry partner): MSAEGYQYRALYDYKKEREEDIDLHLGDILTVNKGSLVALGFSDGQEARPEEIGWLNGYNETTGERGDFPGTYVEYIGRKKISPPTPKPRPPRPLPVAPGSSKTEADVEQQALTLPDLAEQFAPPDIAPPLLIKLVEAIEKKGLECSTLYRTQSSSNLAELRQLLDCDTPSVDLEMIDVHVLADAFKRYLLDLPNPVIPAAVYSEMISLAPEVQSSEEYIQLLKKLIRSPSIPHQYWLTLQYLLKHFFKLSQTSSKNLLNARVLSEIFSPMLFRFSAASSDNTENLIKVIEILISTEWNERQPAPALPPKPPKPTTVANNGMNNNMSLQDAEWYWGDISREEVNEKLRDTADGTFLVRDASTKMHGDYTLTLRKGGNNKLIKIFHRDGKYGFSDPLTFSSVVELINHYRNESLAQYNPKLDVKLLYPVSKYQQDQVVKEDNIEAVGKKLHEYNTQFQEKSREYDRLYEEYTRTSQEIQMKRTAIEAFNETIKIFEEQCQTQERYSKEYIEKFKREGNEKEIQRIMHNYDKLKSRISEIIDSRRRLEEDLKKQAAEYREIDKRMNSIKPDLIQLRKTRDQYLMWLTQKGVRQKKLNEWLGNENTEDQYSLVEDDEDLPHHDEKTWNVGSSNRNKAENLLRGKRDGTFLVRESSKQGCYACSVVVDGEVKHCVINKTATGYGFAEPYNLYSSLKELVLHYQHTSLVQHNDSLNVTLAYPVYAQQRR

| SMILES | pIC50 |
| --- | --- |
| N[C@]1(C(F)(F)F)CN(C(=O)Nc2cccc3c2[C@H](c2cc(F)ccc2Cl)NC3=O)c2ccc(F)cc21 (single isomer, unassigned) [Compound I-2472] | 6.00 to 6.30 |
| O=C1NC(c2cc(F)ccc2Cl)c2c(NC(=O)C3CCCOC3)cc(-c3ccc4ncnn4c3)cc21 (stereo not shown) [Compound I-1814] | 4.00 to 5.00 |
| O=C(Nc1cc(OCC(O)CCO)cc2c1C(c1cc(F)ccc1Cl)NC2=O)c1cc(F)cc(C(F)(F)F)c1 (stereo not shown) [Compound I-1414] | ≥ 7.00 |
| COc1cncc(-c2cc(NC(=O)c3cc(F)cc(C(F)(F)F)c3)c3c(c2)C(=O)NC3c2cc(F)ccc2Cl)c1 (stereo not shown) [Compound I-854] | ≥ 7.00 |
| CCn1cc(-c2cc(NC(=O)c3cc(F)cc(C(F)(F)F)c3)c3c(n2)C(=O)NC3c2cc(F)ccc2Cl)ccc1=O (stereo not shown) [Compound I-586] | ≥ 7.00 |
| O=C(Nc1cc(-c2cn(C(F)F)cn2)cc2c1[C@@H](c1cc(F)ccc1Cl)NC2=O)c1cc(F)cc(C(F)(F)F)c1 [Compound I-1918] | 5.00 to 6.00 |
| O=C(Nc1cc(-c2cn3ncccc3n2)cc2c1C(c1cc(F)ccc1Cl)NC2=O)c1cc(F)cc(C(F)(F)F)c1 (stereo not shown) [Compound I-1306] | ≥ 7.00 |
| O=C1N[C@H](c2cc(F)ccc2Cl)c2c(NC(=O)N3C[C@@](O)(C(F)(F)F)c4cc(F)ccc43)ccc(Cl)c21 (single isomer, unassigned) [Compound I-2620] | 5.00 to 6.00 |
| CC(C)(O)Cc1cc(NC(=O)c2cc(F)cc(C(F)(F)F)c2)c2c(c1)C(=O)NC2c1cc(F)ccc1Cl (stereo not shown) [Compound I-437] | ≥ 7.00 |
| O=C(Nc1cc(-c2cn(C(F)F)cn2)cc2c1[C@H](c1cc(F)ccc1Cl)NC2=O)c1cc(F)cc(C(F)(F)F)c1 [Compound I-1919] | ≥ 7.00 |
| O=C1NC(c2cc(F)ccc2Cl)c2c(NC(=O)N3CCCC(F)(F)C3)cc(Br)cc21 (stereo not shown) [Compound I-544] | 5.00 to 6.00 |
| O=C(Nc1cc(CCO)cc2c1C(c1cc(F)ccc1Cl)NC2=O)c1cc(F)cc(C(F)(F)F)c1 (stereo not shown) [Compound I-579] | ≥ 7.00 |
| O=C(Nc1cc(C2CNCCS2(=O)=O)cc2c1C(c1cc(F)ccc1Cl)NC2=O)c1cc(F)cc(C(F)(F)F)c1 (racemic) [Compound I-1255] | ≥ 7.00 |
| [2H]C([2H])(c1cc(NC(=O)c2cc(F)cc(C(F)(F)F)c2)c2c(c1)C(=O)NC2c1cc(F)ccc1Cl)S(C)(=O)=O (stereo not shown) [Compound I-1551] | ≥ 7.00 |
| O=C(Nc1cc(CN2CCn3cnnc3C2)cc2c1C(c1cc(F)ccc1Cl)NC2=O)c1cc(F)cc(C(F)(F)F)c1 (stereo not shown) [Compound I-1401] | ≥ 7.00 |
| N#Cc1ncc(-c2cc(NC(=O)c3cc(F)cc(C(F)(F)F)c3)c3c(c2)C(=O)N[C@H]3c2cc(F)ccc2Cl)cn1 [Compound I-979] | 6.30 to 7.00 |
| Nc1cc(NC(=O)N2C[C@H](O)c3cc(F)ccc32)c2c(c1)C(=O)N[C@H]2c1cc(F)ccc1Cl (single isomer, unassigned) [Compound I-2413] | 4.00 to 5.00 |
| Cc1ccccc1[C@@H]1NC(=O)c2nccc(NC(=O)N3CCc4ccccc43)c21 [Compound I-227] | 6.30 to 7.00 |
| Nc1nnc2ccc(-c3cc(NC(=O)c4cc(F)cc(C(F)(F)F)c4)c4c(c3)C(=O)NC4c3cc(F)ccc3Cl)cn12 (stereo not shown) [Compound I-1373] | ≥ 7.00 |
| CC(c1nn[nH]c1C(=O)Nc1cccc2c1C(c1cc(F)ccc1Cl)NC2=O)C(F)(F)F (mixture of isomers) [Compound I-2180] | 4.00 to 5.00 |
| COc1cc(-c2ccc3ncnn3c2)cc2c1C(c1cc(F)ccc1Cl)NC2=O (stereo not shown) [Compound I-1973] | 4.00 to 5.00 |
| CC(C)c1cc(N)n(C(=O)Nc2cccc3c2C(c2cc(F)ccc2Cl)NC3=O)n1 (stereo not shown) [Compound I-2465] | 4.00 to 5.00 |

| SMILES | pIC50 |
| --- | --- |
| N#Cc1cccc(C(=O)Nc2cc(Br)cc3c2C(c2cc(F)ccc2Cl)NC3=O)c1 (stereo not shown) [Compound I-522] | 5.00 to 6.00 |
| Cn1c2c(c(NC(=O)c3cc(F)cc(C(F)(F)F)c3)cc1=O)C(c1cc(F)ccc1Cl)NC2=O (stereo not shown) [Compound I-727] | 4.00 to 5.00 |
| O=C1N[C@@H](c2cc(F)ccc2Cl)c2c(NC(=O)N3C[C@@H](O)c4cccc(F)c43)cccc21 (single isomer, unassigned) [Compound I-2210] | 4.00 to 5.00 |
| Cc1ccccc1[C@H]1NC(=O)c2cc(N)cc(NC(=O)c3cc(F)cc(C(F)(F)F)c3)c21 [Compound I-65] | 5.00 to 6.00 |
| O=C(Nc1cc(Br)cc2c1C(c1cc(F)ccc1Cl)NC2=O)c1cc(F)cc2c1NCCC2 (stereo not shown) [Compound I-1385] | 6.00 to 6.30 |
| O=C1NC(c2cc(F)ccc2Cl)c2c(NC(=O)C3CCc4ccccc4CC3)cccc21 (stereo not shown) [Compound I-2374] | 4.00 to 5.00 |
| CCCNc1cc(NC(=O)c2cc(F)cc(C(F)(F)F)c2)c2c(n1)C(=O)NC2c1cc(F)ccc1Cl (stereo not shown) [Compound I-319] | ≥ 7.00 |
| O=C1NC(c2cc(F)ccc2Cl)c2c(NC(=O)N3CCCC(c4ccccc4)C3)cc(Br)cc21 (racemic) [Compound I-597] | 5.00 to 6.00 |
| O=C(Nc1cccc2c1C(c1cc(F)c(F)cc1C(F)F)NC2=O)c1cc(F)cc(C(F)(F)F)c1 (stereo not shown) [Compound I-330] | ≥ 7.00 |
| O=C1NC(c2cc(F)ccc2Cl)c2c(NC(=O)N3CCC(C4CC4)C3)cccc21 (stereo not shown) [Compound I-2398] | 4.00 to 5.00 |
| O=C(Nc1cccc2c1[C@@H](C1CCCCC1)NC2=O)c1cc(F)cc(C(F)(F)F)c1 [Compound I-2053] | 4.00 to 5.00 |
| O=C(Nc1cc(Br)cc2c1[C@H](c1cccc(F)c1F)NC2=O)c1cc(F)cc(C(F)(F)F)c1 [Compound I-682] | 6.30 to 7.00 |
| O=C(Nc1cc(Br)cc2c1C(c1cc(F)ccc1Cl)NC2=O)c1cc(F)cc(OC(F)(F)F)c1 (stereo not shown) [Compound I-831] | 6.30 to 7.00 |
| O=C(Nc1cc(/N=C2/N[C@H](C(F)(F)F)CO2)cc2c1[C@@H](c1cc(F)ccc1Cl)NC2=O)c1cc(F)cc(C(F)(F)F)c1 (single isomer, unassigned) [Compound I-2389] | 5.00 to 6.00 |
| CC(C)(O)COc1ncc(-c2cc(NC(=O)c3cc(F)cc(C(F)(F)F)c3)c3c(c2)C(=O)NC3c2cc(F)ccc2Cl)cn1 (stereo not shown) [Compound I-1529] | ≥ 7.00 |
| O=C(Nc1cc(-n2ccnc2)cc2c1[C@H](c1cc(F)ccc1Cl)NC2=O)c1cc(F)cc(C(F)(F)F)c1 (stereo in doubt) [Compound I-1126] | ≥ 7.00 |
| O=C1N[C@H](c2cc(F)ccc2Cl)c2c(NC(=O)N3C[C@@](O)(C(F)F)c4cc(F)ccc43)cc(F)cc21 (single isomer, unassigned) [Compound I-2632] | 5.00 to 6.00 |
| O=C(Nc1cc(/N=C2/N[C@@H](C(F)(F)F)CO2)cc2c1[C@@H](c1cc(F)ccc1Cl)NC2=O)c1cc(F)cc(C(F)(F)F)c1 (single isomer, unassigned) [Compound I-2390] | 5.00 to 6.00 |
| O=C(Nc1cc(-c2ccc(C(F)F)nc2)cc2c1C(c1cc(F)ccc1Cl)NC2=O)c1cc(F)cc(C(F)(F)F)c1 (stereo not shown) [Compound I-1932] | 6.30 to 7.00 |
| CS(=O)(=O)n1cc(-c2cc(NC(=O)c3cc(F)cc(C(F)(F)F)c3)c3c(c2)C(=O)N[C@@H]3c2cc(F)ccc2Cl)cn1 [Compound I-1995] | 6.00 to 6.30 |
| CC(C)(O)c1cc(NC(=O)c2cc(F)cc(Cl)c2)c2c(c1)C(=O)NC2c1cc(F)ccc1Cl (stereo not shown) [Compound I-214] | ≥ 7.00 |
| O=C(Nc1cc(-c2cncnc2)cc2c1[C@@H](c1cc(F)ccc1Cl)NC2=O)c1cc(F)cc(C(F)(F)F)c1 [Compound I-1094] | 6.00 to 6.30 |

Continued, values first:

| pIC50 | SMILES |
| --- | --- |
| 5.00 to 6.00 | Nc1cc(C(=O)Nc2cccc3c2C(c2cc(F)ccc2Cl)NC3=O)cc(C(F)(F)F)c1 (stereo not shown) [Compound I-449] |
| 4.00 to 5.00 | O=C1NC(c2cc(F)ccc2Cl)c2c(NC(=O)N3CCC4C3[C@H]4C(F)(F)F)cccc21 (single isomer, unassigned) [Compound I-2328] |
| 6.30 to 7.00 | O=C(Nc1cc(-c2ccc3ncnn3c2)cc2c1[C@H](c1cc(F)ccc1Cl)NC2=O)c1ccc(F)c(OC(F)(F)F)c1 (stereo in doubt) [Compound I-1107] |
| 5.00 to 6.00 | O=C(Nc1cccc2c(=O)[nH]n(-c3cccc(Cl)c3)c12)c1cc(F)cc(C(F)(F)F)c1 [Compound I-950] |
| 4.00 to 5.00 | O=C1NC(c2cc(F)ccc2Cl)c2c(NC(=O)N3CCCC(O)C3)cc(-c3ccc4ncnn4c3)cc21 (stereo not shown) [Compound I-1721] |
| ≥ 7.00 | Cc1ccccc1C1NC(=O)c2c(Br)ccc(NC(=O)c3nsc4ccccc34)c21 (stereo not shown) [Compound I-203] |
| 4.00 to 5.00 | Cc1ccccc1C1NC(=O)c2cccc(NC(=O)c3ncc4ccc(Cl)cn34)c21 (stereo not shown) [Compound I-151] |
| 5.00 to 6.00 | NC(=O)C(C(=O)Nc1cc(-c2ccc3ncnn3c2)cc2c1C(c1cc(F)ccc1Cl)NC2=O)c1ccccc1 (stereo not shown) [Compound I-1787] |
| ≥ 7.00 | O=C(Nc1cccc2c1C(c1cc(F)ccc1Cl)NC2=O)c1cc(F)cc(C(F)(F)F)c1 (stereo not shown) [Compound I-372] |
| 4.00 to 5.00 | O=C1NC(c2cc(F)ccc2Cl)c2c(NC(=O)C3CCCC(O)(C(F)(F)F)C3)cccc21 (stereo not shown) [Compound I-2136] |
| ≥ 7.00 | Cc1ccccc1C1NC(=O)c2c(C(=O)NCC(N)=O)ccc(NC(=O)c3nsc4ccccc34)c21 (stereo not shown) [Compound I-261] |
| ≥ 7.00 | Cn1cc(-c2cc(NC(=O)c3cc(F)cc(C(F)(F)F)c3)c3c(n2)C(=O)NC3c2cc(F)ccc2Cl)cn1 (stereo not shown) [Compound I-162] |
| ≥ 7.00 | O=C(Nc1cccc2c1C(c1cc(F)ccc1Cl)NC2=O)c1cc(F)c(F)c(C(F)(F)F)c1 (stereo not shown) [Compound I-580] |
| 5.00 to 6.00 | O=C(Nc1cc(-c2ccc3nnc(C(F)F)n3c2)cc2c1[C@@H](c1cc(F)ccc1Cl)NC2=O)c1cc(F)cc(C(F)(F)F)c1 [Compound I-1924] |
| ≥ 7.00 | O=C(Nc1cc(CC(O)C(F)(F)F)cc2c1C(c1cc(F)ccc1Cl)NC2=O)c1cc(F)cc(C(F)(F)F)c1 (stereo not shown) [Compound I-1200] |
| 4.00 to 5.00 | Cc1ccccc1C1NC(=O)c2cccc(N)c21 (stereo not shown) [Compound I-62] |
| ≥ 7.00 | N#C[C@H]1C[C@H](Oc2cc(NC(=O)c3cc(F)cc(C(F)(F)F)c3)c3c(c2)C(=O)N[C@H]3c2cc(F)ccc2Cl)C1 (stereo in doubt) [Compound I-1305] |
| ≥ 7.00 | O=C(O)Cc1cc(NC(=O)c2cc(F)cc(C(F)(F)F)c2)c2c(c1)C(=O)NC2c1cc(F)ccc1Cl (stereo not shown) [Compound I-399] |
| 5.00 to 6.00 | O=C1NC(c2cc(F)ccc2Cl)c2c(NC(=O)c3cccc4cccnc34)cc(Br)cc21 (stereo not shown) [Compound I-602] |
| 4.00 to 5.00 | O=C1NCc2c(NC(=O)N3CCCC[C@@H]3Cc3ccccc3)cccc21 (stereo in doubt) [Compound I-989] |
